Our source for the IC50, MIC50 and MIC100 values is ChEMBL document CHEMBL4052712, “Design and optimization of highly-selective, broad spectrum fungal CYP51 inhibitors” (Bioorg Med Chem Lett, 2017).

Each structure is given as a SMILES string.

Data set [1] deals with T1, Cytochrome P450 11B2, mitochondrial (Homo sapiens, UniProt P19099).
T1 sequence (P19099 whole entry): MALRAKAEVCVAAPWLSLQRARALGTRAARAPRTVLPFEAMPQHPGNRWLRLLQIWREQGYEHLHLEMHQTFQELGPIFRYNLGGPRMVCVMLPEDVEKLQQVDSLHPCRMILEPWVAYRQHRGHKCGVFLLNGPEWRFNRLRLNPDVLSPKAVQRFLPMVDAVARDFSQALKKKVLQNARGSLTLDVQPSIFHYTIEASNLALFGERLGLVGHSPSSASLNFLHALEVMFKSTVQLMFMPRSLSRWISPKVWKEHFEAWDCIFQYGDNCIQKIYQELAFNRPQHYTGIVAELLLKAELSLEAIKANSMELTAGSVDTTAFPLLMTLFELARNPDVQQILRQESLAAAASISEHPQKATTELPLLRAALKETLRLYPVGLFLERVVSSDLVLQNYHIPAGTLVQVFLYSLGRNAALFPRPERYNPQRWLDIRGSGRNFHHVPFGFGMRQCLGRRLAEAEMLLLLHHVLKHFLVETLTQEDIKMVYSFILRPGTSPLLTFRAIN
The experiment in a line: Inhibition of CYP11B2 in human hepatocyte microsomes using deoxycorticosteroid substrate by HPLC/MS/MS method. The class given is ADME.

The subject of a further data set is Cryptococcus neoformans. As to the kind of experiment: Inhibition of CYP51 in Cryptococcus neoformans assessed as inhibition of microbe growth incubated for 48 hrs by CLSI M27-A3 guideline based method.
The target in data set [2] is T2, Lanosterol 14-alpha demethylase (Aspergillus) (UniProt B8NUK6+Q9P8R0+G4WW85). As to the kind of experiment: Inhibition of CYP51 in Aspergillus flavus assessed as inhibition of microbe growth incubated for 48 to 168 hrs by CLSI M27-A3 guideline based method.
Data set [3] addresses Lanosterol 14-alpha demethylase (Candida albicans (strain SC5314 / ATCC MYA-2876) (Yeast), UniProt P10613). As to the kind of experiment: Inhibition of CYP51 in Candida albicans assessed as inhibition of microbe growth incubated for 48 hrs by CLSI M27-A3 guideline based method.
Data set [4] deals with T3, Cytochrome P450 11B1, mitochondrial (Homo sapiens, UniProt P15538).
T3 sequence (P15538 whole entry): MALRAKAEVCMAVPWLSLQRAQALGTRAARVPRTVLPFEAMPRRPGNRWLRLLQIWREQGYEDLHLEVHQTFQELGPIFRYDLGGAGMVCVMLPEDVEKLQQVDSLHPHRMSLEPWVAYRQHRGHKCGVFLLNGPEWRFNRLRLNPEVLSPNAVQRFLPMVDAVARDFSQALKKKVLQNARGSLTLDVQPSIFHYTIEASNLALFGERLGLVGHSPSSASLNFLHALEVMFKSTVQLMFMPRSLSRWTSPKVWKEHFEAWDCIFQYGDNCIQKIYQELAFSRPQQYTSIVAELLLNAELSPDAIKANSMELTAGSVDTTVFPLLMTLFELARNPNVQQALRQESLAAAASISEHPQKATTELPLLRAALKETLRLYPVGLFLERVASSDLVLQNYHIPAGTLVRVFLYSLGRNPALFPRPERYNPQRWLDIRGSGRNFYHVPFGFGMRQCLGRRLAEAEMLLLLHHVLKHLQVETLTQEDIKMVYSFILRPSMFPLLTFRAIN
As to the kind of experiment: Inhibition of CYP11B1 in human hepatocyte microsomes using deoxycortisol substrate by HPLC/MS/MS method. Type of data set: ADME.

The target in data set [5] is Lanosterol 14-alpha demethylase (Candida glabrata (strain ATCC 2001 / BCRC 20586 / JCM 3761 / NBRC 0622 /NRRL Y-65 / CBS 138) (Yeast) (Nakaseomyces glabratus)) (UniProt P50859). The experiment in a line: Inhibition of CYP51 in Candida glabrata assessed as inhibition of microbe growth incubated for 48 hrs by CLSI M27-A3 guideline based method.
The target of data set [6] is T4, Steroid 17-alpha-hydroxylase/17,20 lyase (Homo sapiens, UniProt P05093).
T4 sequence (P05093 whole entry): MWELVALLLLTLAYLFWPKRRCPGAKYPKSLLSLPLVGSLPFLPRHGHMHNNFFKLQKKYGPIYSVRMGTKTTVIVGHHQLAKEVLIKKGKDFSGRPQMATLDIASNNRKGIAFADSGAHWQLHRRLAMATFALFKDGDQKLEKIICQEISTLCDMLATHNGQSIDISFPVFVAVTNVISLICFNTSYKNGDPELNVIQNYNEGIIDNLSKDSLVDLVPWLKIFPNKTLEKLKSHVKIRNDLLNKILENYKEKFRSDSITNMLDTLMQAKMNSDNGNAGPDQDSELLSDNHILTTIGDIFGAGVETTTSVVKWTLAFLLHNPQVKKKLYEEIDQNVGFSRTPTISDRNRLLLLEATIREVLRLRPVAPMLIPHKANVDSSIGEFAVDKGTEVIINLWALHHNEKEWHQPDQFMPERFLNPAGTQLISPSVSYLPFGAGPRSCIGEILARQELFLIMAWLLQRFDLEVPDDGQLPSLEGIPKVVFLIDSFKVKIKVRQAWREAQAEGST
The experiment in a line: Inhibition of CYP17 hydroxylase in human hepatocyte microsomes using pregnenolone substrate by HPLC/MS/MS method. The class given is ADME.

Data set [7] deals with T4, Steroid 17-alpha-hydroxylase/17,20 lyase. The experiment in a line: Inhibition of CYP17 lyase in human hepatocyte microsomes using 17a-hydroxypregnenolone substrate by HPLC/MS/MS method. The class given is ADME.
In data set [8] the target is T5, Lanosterol 14-alpha demethylase (Trichophyton rubrum (strain ATCC MYA-4607 / CBS 118892) (Athlete'sfoot fungus)) (UniProt F2SHH3).
T5 sequence (whole entry): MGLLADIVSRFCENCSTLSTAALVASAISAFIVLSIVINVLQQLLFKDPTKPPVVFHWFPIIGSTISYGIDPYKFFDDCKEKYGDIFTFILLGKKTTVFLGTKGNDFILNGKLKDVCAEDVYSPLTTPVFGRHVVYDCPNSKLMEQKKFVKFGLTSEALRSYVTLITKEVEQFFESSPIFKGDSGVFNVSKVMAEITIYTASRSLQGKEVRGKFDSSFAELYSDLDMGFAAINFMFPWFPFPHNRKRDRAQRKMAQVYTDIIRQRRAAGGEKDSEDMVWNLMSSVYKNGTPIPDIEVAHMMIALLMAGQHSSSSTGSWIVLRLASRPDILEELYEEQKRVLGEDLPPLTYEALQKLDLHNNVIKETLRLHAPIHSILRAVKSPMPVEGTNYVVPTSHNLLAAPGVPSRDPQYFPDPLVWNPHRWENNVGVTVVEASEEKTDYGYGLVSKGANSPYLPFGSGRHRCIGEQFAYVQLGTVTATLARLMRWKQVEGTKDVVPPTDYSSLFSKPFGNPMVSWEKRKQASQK
The experiment in a line: Inhibition of CYP51 in Trichophyton rubrum assessed as inhibition of microbe growth incubated for 48 hrs by CLSI M27-A3 guideline based method.

For data set [9], the target named is T2, Lanosterol 14-alpha demethylase (Aspergillus). As to the kind of experiment: Inhibition of CYP51 in Aspergillus fumigatus assessed as inhibition of microbe growth incubated for 48 to 168 hrs by CLSI M27-A3 guideline based method.
The target in another data set is T6, Aromatase (Homo sapiens, UniProt P11511).
T6 sequence (P11511 whole entry): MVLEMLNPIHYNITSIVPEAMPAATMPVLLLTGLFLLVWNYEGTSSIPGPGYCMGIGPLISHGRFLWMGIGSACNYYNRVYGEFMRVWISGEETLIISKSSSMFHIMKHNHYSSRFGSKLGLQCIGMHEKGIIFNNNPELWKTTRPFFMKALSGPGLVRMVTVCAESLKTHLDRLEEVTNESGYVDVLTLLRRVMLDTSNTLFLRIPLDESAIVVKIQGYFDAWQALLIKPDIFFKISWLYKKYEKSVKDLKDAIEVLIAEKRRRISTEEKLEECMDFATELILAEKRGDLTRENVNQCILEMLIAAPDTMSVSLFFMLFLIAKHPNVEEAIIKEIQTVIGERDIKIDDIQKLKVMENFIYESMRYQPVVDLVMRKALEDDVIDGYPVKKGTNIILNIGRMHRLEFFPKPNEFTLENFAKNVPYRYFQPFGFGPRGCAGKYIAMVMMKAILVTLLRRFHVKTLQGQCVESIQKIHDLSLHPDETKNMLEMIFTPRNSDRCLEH
The experiment in a line: Inhibition of CYP19 in human hepatocyte microsomes using testosterone substrate by HPLC/MS/MS method. The class given is ADME.

Lanosterol 14-alpha demethylase (Candida glabrata (strain ATCC 2001 / BCRC 20586 / JCM 3761 / NBRC 0622 /NRRL Y-65 / CBS 138) (Yeast) (Nakaseomyces glabratus)), sequence (P50859 whole entry): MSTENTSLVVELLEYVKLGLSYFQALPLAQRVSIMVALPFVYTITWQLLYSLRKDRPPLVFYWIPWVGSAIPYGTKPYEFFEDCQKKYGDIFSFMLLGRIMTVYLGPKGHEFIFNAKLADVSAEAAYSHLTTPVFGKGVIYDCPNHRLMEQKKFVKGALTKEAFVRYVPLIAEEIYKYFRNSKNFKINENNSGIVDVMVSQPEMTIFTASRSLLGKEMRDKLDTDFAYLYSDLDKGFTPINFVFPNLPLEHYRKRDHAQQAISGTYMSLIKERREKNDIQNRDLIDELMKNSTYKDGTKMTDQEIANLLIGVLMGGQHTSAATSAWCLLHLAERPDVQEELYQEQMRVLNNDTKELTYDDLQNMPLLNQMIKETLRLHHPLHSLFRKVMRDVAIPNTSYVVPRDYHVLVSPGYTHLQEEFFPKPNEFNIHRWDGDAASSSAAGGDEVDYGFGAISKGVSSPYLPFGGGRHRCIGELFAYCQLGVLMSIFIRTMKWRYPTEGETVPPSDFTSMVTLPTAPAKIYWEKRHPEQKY
Lanosterol 14-alpha demethylase, sequence (P10613 whole entry): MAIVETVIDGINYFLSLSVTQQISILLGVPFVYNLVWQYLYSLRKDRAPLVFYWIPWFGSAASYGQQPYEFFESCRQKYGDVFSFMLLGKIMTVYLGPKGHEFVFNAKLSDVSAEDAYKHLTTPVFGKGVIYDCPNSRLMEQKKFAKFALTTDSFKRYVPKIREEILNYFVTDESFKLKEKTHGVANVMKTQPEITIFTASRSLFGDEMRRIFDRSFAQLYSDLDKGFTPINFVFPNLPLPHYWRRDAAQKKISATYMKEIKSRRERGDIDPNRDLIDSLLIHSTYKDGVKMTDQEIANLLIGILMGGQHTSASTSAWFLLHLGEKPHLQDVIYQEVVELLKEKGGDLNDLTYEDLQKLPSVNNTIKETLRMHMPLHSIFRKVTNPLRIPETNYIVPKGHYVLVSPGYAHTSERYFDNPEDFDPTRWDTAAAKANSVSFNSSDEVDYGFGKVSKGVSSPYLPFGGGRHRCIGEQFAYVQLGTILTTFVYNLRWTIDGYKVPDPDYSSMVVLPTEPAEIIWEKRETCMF

With `OC(Cn1cncn1)(Cn1cncn1)c1ccc(F)cc1F` [FLUCONAZOLE], the IC50 in [1] was 13 µM; in data set [4] it was 30 µM; in [6] it was greater than 200 µM; in data set [7], greater than 200 µM; against Aromatase it was 22 µM. Further, the MIC50 stood at 0.25 µg/mL in the data set with Cryptococcus neoformans, 0.5 µg/mL in data set [3], 8 µg/mL in data set [5] and 16 µg/mL in data set [8]. Moreover, the MIC100 in [2] and in data set [9] was greater than 64 µg/mL in each case.
Turning to `CC[C@@H]([C@H](C)O)n1ncn(-c2ccc(N3CCN(c4ccc(OC[C@@H]5CO[C@@](Cn6cncn6)(c6ccc(F)cc6F)C5)cc4)CC3)cc2)c1=O` [POSACONAZOLE], the IC50 is 0.021 µM in data set [1]; 0.31 µM in data set [4]; 1.8 µM in data set [6]; 0.042 µM in data set [7]; 8.4 µM at Aromatase. Also, the MIC50 came out at 0.0078 µg/mL with Cryptococcus neoformans, 0.015 µg/mL in data set [3], 0.12 µg/mL in [5] and 0.25 µg/mL in [8]. In addition, the MIC100 in data set [2] was 0.25 µg/mL; in data set [9], 0.062 µg/mL.
